The text below walks through data of patent US4115585A, “Esters of 1-(p-hydroxyphenyl)-2-(1'-methyl-2'-phenoxyethylamino)-1-propanol” (Instituto Luso Farmaco d'Italia S.r.l., priority 1976, dated 1978).

Data set [1] is described as follows: Hypotensive activity (variation in pressure 1 to 2 days after insertion of a catheter in the abdominal artery, technique of Weeks and Jones). It counts as in vivo.
A further data set in a line: in vivo. Conditions: rat, po. An excerpt:
According to the invention, esters I may be prepared by the esterification of the phenolic function of 1-(p-hydroxyphenyl)-2-(1'-methyl-2'-phenoxyethylamino)-1-propanol (II) with reactive derivatives like chlorides, bromides, and anhydrides of aliphatic acids of general formula III: [drawing 3] in which R1, R2, and R3 are as reported above. The esterification may be performed in an apolar solvent at reflux (such as benzene, toluene, or an analogous aromatic hydrocarbon) in the presence of an organic base like triethylamine, or in pyridine at room temperature.

Some results are limits rather than exact numbers.

In the case of `CC(COc1ccccc1)NC(C)C(O)c1ccc(O)cc1` (stereo not shown) [Isoxysuprine, 1-(p-hydroxyphenyl)-2-(1'-methyl-2'-phenoxyethylamino)-1-propanol], the “Hypotensive Activity Recovery to 50%” value in data set [1] (dose 5 mg/Kg os) turned out to be 8.0 ± 3.0 min; in data set [1] (dose 10 mg/Kg os), 79.8 ± 32.6 min; in data set [1] (dose 20 mg/Kg os), 46.4 ± 13.8 min; in data set [1] (dose 40 mg/Kg os) it was 34.0 ± 12.8 min. In addition, the “Hypotensive Activity Recovery to 75%” value was found to be 18.5 ± 6.5 min in data set [1] (dose 5 mg/Kg os), 105.0 ± 42.9 min in data set [1] (dose 10 mg/Kg os), 110.4 ± 29.4 min in data set [1] (dose 20 mg/Kg os) and 197.5 ± 59.5 min in data set [1] (dose 40 mg/Kg os). For the same compound, the “Hypotensive Activity maximal pressure decrease” value in data set [1] (dose 5 mg/Kg os) came to 24.5±11.5 mm Hg; in data set [1] (dose 10 mg/Kg os), 25.3±3.6 mm Hg; in data set [1] (dose 20 mg/Kg os), 28.7±4.9 mm Hg; in data set [1] (dose 40 mg/Kg os), 21.8±2.1 mm Hg.

As usually defined, the LD50 is the dose expected to kill half of the subjects tested. Read a high LD50 as lower toxicity. `CC(COc1ccccc1)NC(C)C(O)c1ccc(OC(=O)C(C)(C)C)cc1` (stereo not drawn) [LR 693, 1-(p-α,α-dimethylpropionyloxyphenyl)-2-(1'-methyl-2'-phenoxyethylamino)-1-propanol] registered an LD50 in “in vivo” greater than 5000 mg/kg. Besides, in data set [1] (dose 20 mg/Kg os), the “Hypotensive Activity Recovery to 50%” value amounted to 29.0 ± 1.0 min, the “Hypotensive Activity Recovery to 75%” value was 60.0 ± 20.0 min and the “Hypotensive Activity maximal pressure decrease” value is listed as 9.0±1.0 mm Hg. Further, in data set [1] (dose 40 mg/Kg os), the “Hypotensive Activity Recovery to 50%” value came to 115.7 ± 21.9 min, the “Hypotensive Activity Recovery to 75%” value stood at 311.7 ± 34.2 min and the “Hypotensive Activity maximal pressure decrease” value is reported as 21.3±4.1 mm Hg. Moreover, in data set [1] (dose 80 mg/Kg os), the “Hypotensive Activity Recovery to 50%” value came out at 180.2 ± 40.7 min, the “Hypotensive Activity Recovery to 75%” value was found to be 384.8 ± 71.0 min and the “Hypotensive Activity maximal pressure decrease” value was 18.8±8.0 mm Hg.
